≈ marks a conversion by molar mass, not a printed value.
Legend:
Assay type in all cases: physicochemical
[1] = Phase solubility study of FFC in Gamma-CD (Higuchi Connors)
Experimental: (§1) Phase solubility analysis is one of the methods used to determine a drug:CD binding constant and its consequences on the drug solubility have been extensively described in the literature by Higuchi and Connors. In such experiments, the solubility of a substance (S) is monitored with increases in the concentration of a ligand (L) (cyclodextrin in this case). The experiments are conducted in a series of tubes or vials containing the same volume of ligand solutions with increasing concentrations, except that one tube contains the solvent only. To each tube is added a known amount of the substance or drug, and the samples are equilibrated at constant temperature. The solution phase is then analyzed for the total substance concentration. If a soluble complex forms, the substance concentration should vary with increasing ligand concentration. The solubility behavior can be determined using a phase diagram by plotting the total substance concentration versus the total ligand concentration.
(§2) Florfenicol solubility in mixed solvents, such as water/PEG-300, and florfenicol complexes with beta cyclodextrin were evaluated by solubility studies using High Performance Liquid Chromatography (HPLC). The HPLC system consisted of a Waters Alliance Separation Module equipped with a Waters 2996 Photodiode Array Detector interfaced with Millennium Chromatography manager data software. The HPLC mobile phase consisted of acetonitrile and a 0.1% phosphoric acid aqueous solution (30:70 v/v). A Phenomenx®, Luna C8 5 micron column was used. The flow rate was 1.0 mL/min and the detection wavelength was 260 nm. Binding constants were calculated using the Higuchi Connors method from solubility study plots. The solubility of florfenicol in aqueous CD/PEG-300 systems was also investigated with the same technique.
(§3) In a first set of experiments, phase solubility studies were conducted for FFC in natural and modified cyclodextrins. The results of these studies are reported in Tables I, II, III, IV and V below, and the phase solubility diagrams are reported in FIGS. 5, 6, 7 and 8.

[2] = Solubility of FFC in aqueous Beta-CD/PEG-300 systems; details: for solubility: aqueous beta-cyclodextrin/PEG-300 system, aqueous with cosolvent or surfactant or cyclodextrin, thermodynamic from solid
Experimental: as §2
In a second set of experiments, the effects of different percentages of PEG-300 when used as a co-solvent were investigated in a FFC-cyclodextrin complex system.
The results obtained for the FEC-CD complex in the presence of different percentages of PEG-300 and different molar concentrations of cyclodextrin are reported in Tables VI and VII below.

[3] = Phase solubility study of FFC in Captisol (Higuchi Connors)
Experimental: as §1, §2, §3

[4] = Phase solubility study of FFC in HP-Beta-CD (Higuchi Connors)
Experimental: as §1, §2, §3

[5] = Experimental water solubility of FFC (HPLC solubility study); details: thermodynamic from solid
Experimental: as §1, §2, §3

[6] = Phase solubility study of FFC in Beta-CD (Higuchi Connors)
Experimental: as §1, §2, §3

CS(=O)(=O)c1ccc([C@@H](O)[C@@H](CF)NC(=O)C(Cl)Cl)cc1 (relative stereo) [FFC, [R-(R*,S*)]2,2-Dichloro-N-[1-(fluoromethyl)-2-hydroxy-2-[4-(methylsulfonyl)phenyl]-ethyl]acetamide]
Average FFC ([1]; Gamma-CD 0.007 M): 2.51 mg/mL | Average FFC ([1]; Gamma-CD 0.014 M): 3.70 mg/mL | Average FFC ([1]; Gamma-CD 0.03 M): 5.24 mg/mL | Average FFC ([1]; Gamma-CD 0.06 M): 8.20 mg/mL | Average FFC ([1]; Gamma-CD 0.11 M): 10.77 mg/mL | calculated binding constant for FFC:Gamma-CD Complex ([1]; Gamma-CD, Higuchi Connors method): 612.43 M⁻¹ | solubility of FFC (change) ([2]; PEG-300 used as co-solvent for a FFC:cyclodextrin complex): greatly increased | solubility ([2]; 10 mM beta/3% PEG-300): 7.51 mg/mL (≈ 21 mM) | solubility ([2]; 10 mM beta/10% PEG-300): 6.31 mg/mL (≈ 17.6 mM) | solubility ([2]; 10 mM beta/50% PEG-300): 12.3 mg/mL (≈ 34.3 mM) | solubility ([2]; 50 mM beta/20% PEG-300): 10.6 mg/mL (≈ 29.5 mM) | solubility ([2]; 50 mM beta/30% PEG-300): 14.4 mg/mL (≈ 40.1 mM) | solubility ([2]; 50 mM beta/50% PEG-300): 15.5 mg/mL (≈ 43.3 mM) | Average FFC ([3]; Captisol 0.006 M): 4.92 mg/mL | FFC ([3]; Captisol 0.006 M): 9.28 µM | Average FFC ([3]; Captisol 0.013 M): 5.11 mg/mL | FFC ([3]; Captisol 0.013 M): 13.2 µM | Average FFC ([3]; Captisol 0.03 M): 7.98 mg/mL | Average FFC ([3]; Captisol 0.05 M): 13.17 mg/mL | FFC ([3]; Captisol 0.05 M): 34.1 µM | Average FFC ([3]; Captisol 0.10 M): 19.18 mg/mL | FFC ([3]; Captisol 0.10 M): 49.7 µM | calculated binding constant for FFC:Captisol complex ([3]; Captisol, Higuchi Connors method): 1020.92 M⁻¹ | Average FFC ([4]; HP-Beta-CD 0.006 M): 3.72 mg/mL | Average FFC ([4]; HP-Beta-CD 0.012 M): 4.88 mg/mL | Average FFC ([4]; HP-Beta-CD 0.02 M): 7.00 mg/mL | Average FFC ([4]; HP-Beta-CD 0.05 M): 9.76 mg/mL | Average FFC ([4]; HP-Beta-CD 0.09 M): 17.43 mg/mL | calculated binding constant for FFC:HP-CD complex ([4]; HP-Beta-CD, Higuchi Connors method): 816.652 M⁻¹ | solubility ([5]; Standard 1): 1910 µg/mL (≈ 5.33 mM) | solubility ([5]; Standard 2): 1900 µg/mL (≈ 5.3 mM) | solubility ([5]; Standard 3): 1950 µg/mL (≈ 5.44 mM) | Average FFC ([6]; Beta-CD 0.006 M): 4.03 mg/mL | FFC ([6]; Beta-CD 0.006 M): 10.45 µM | Average FFC ([6]; Beta-CD 0.01 M): 5.91 mg/mL | FFC ([6]; Beta-CD 0.01 M): 15.3 µM | Average FFC ([6]; Beta-CD 0.02 M): 9.79 mg/mL | FFC ([6]; Beta-CD 0.02 M): 25.4 µM | Average FFC ([6]; Beta-CD 0.05 M): 15.59 mg/mL | FFC ([6]; Beta-CD 0.05 M): 40.4 µM | calculated binding constant for FFC:CD complex ([6]; Beta-CD, Higuchi Connors method): 1429.57 M⁻¹

Reference: US20090062397A1, “COMPOUNDS AND METHODS FOR ENHANCING SOLUBILITY OF FLORFENICOL AND STRUCTURALLY-RELATED ANTIBIOTICS USING CYCLODEXTRINS” (Schering-Plough Animal Health Corporation, priority 2007, published 2009)
